The values below come from PMC4257840 (Journal of Medicinal Chemistry, 2014).

The target in series [1] is T1, Factor Xa from human plasma (Homo sapiens, UniProt P00742).
T1 construct: containing 0.4 nM Factor Xa from human plasma; from tissue; host or cells: human plasma
The series can be described thus: Protease counter-screening: Factor Xa. It counts as biochemical. The procedure: (§1) Appendix 7. Protease Counter -Screening
(§2) Protease counter-screeni ng was performed using the methods described below. Initial screening was conducted in duplicate using a single test substance concentration of 10 µ M .
(§3) Additional assays were conducted in replicate for selected pairin gs of test s ubstance and enz yme in order to enable the determination of IC50 values using conventional procedures.
(§4) Determination of K i was made using the Batch K i program (Biokin Ltd, Pullman, WA) to derive values from the Morrison equation: […]
(§5) Where [E ] is the active enz yme concentration, Kiapp is the apparent inhibition const ant, v 0 is the control velocit y in the absence of inhibitors, vb is the background velocity, v is the initial reaction velocit y in the presence of inhibitor, and I is the inhibitor concentration.Thence:
(§6) Where [S ] is the substrate concentration and KM is the Michealis constant. […]
Test compound or vehicle was pre- incubated with 600 […]
The reaction was […]
initiated by addition of 1 µM N-CH3-SO2-D-FGR-pNA for another 120 min incubation period.
The amount of pNA formed was read spectrophotometricall y at 405 nm.
Factor Xa: Test compound or vehicle was pre -incubated for 15 min at 25 °C in modified 50 mM Tris-HCl buffer pH 7.6 containing 0.4 nM Factor Xa from human plasma. The reaction was initiated by addition of 0.3 mM N-a-Z-D-RGR-pNA for another 60 min incubation period. […]

Series [2] has as its target T2, Factor VIIa from human plasma (Homo sapiens, UniProt P08709).
T2 construct: incubated with 25 nM Factor VIIa from; from tissue; host or cells: human plasma
Put plainly: Protease counter-screening: Factor VIIa. It counts as biochemical. The procedure: as §1, §2, §3, §4, §5, §6
Test compound or vehicle was pre- incubated with 600
Factor VIIa: Test compound or vehicle was pre- incubated with 25 nM Factor VIIa from human plasma in modified 50 mM Tris-HCl buffer pH 7.6 for 15 min at 25 °C. The reaction was initiated by addition of 1 µM N-CH3-SO2-D-FGR-pNA for another 120 min incubation period.
The amount of pNA formed was read spectrophotometricall y at 405 nm. […]

Series [3] is described as follows: Pharmacokinetics after oral and iv dosing to rats. It counts as in vivo, Sprague-Dawley rat. To be noted: rat. The procedure:
Appendix 2. Pharmaco kinetics an d P l a s ma Protein Binding […]
Pharma cokinetics. In vivo PK characteristics were determined using non- fasted Sprague-Dawle y rats (mal e, 200-300 g, 10- 16 weeks of age) with groups of three animals per route per compound. Soluble formulations were developed and verified b y HP LC/UV s o that compounds were dosed discretel y b y the iv (1 mg/kg, 1 mL/kg) and po (5 mg/kg, 5 mL/kg) routes. Blood samples were obtained at various times after dosing and plasma prepared for LC -MS-MS quantification of the test substance after inclusion of an intern al standard . PK p aramet ers were calculated usin g a non -compartmental model in WinNonlin v5.2.
Plasma Protein Binding Assay. PPB was determined with a Rapid Equilibrium Dialysis device using 8 kDa molecular weight cut-off inserts (Fisher Scientific UK Ltd, Leicest ershire, UK) as described b y the manufacturer. R at (Sprague Dawl e y strain) plasma EDTA K2 (mixed gender, pooled, SeraLab, West Sussex, UK) was thawed and centrifuged at 13,000 x g for 10 min to remove precipitates before being spiked with compounds (5 µM). The concentrations of compounds in the plasma and buffer chambers were determined b y LC -MS-MS (AB Sciex 3200 QTrap) anal ysis after 4 h incubation at 37 °C. Binding was calculated from the concentration percentage in both chambers as shown below. Assays were p erfo rmed in replicate and the data

In the next series the target is T3, human plasma thrombin (Homo sapiens, UniProt P00734).
T3 construct: thrombin in modified HEPES buffer pH 7.5; from tissue; host or cells: human plasma
Put plainly: Protease counter-screening: Thrombin. The following applies: test concentration 0.3-100 µM. It counts as biochemical. On the procedure: as §1, §2, §3, §4, §5
(§7) Where [S ] is the substrate concentration and KM is the Michealis constant.
(§8) Caspase 1: Activity against human recombinant caspase 1 expressed in E. coli was tested using Ac-YVAD- AMC as the substrate. Test compound or vehicle was pre- incubated with 600 […]
(§9) followed by excitation/emission at 485/535 nm. […]
(§10) AMC formation was read at 360 nm/465 nm.
(§11) Cathepsin L2: Human recombinant cathepsin L2 expressed in NS0 cells was used as the enzyme source. […] Form ation of AMC was measured at 360 […]
(§12) The amount of AMC formed was read spectrofluorimetricall y at 360 nm/465 nm. […]

For series [4], the target named is T4, Human recombinant cathepsin L2 (Homo sapiens, UniProt O60911).
T4 construct: host or cells: NS0 cells
T4 sequence (O60911 114-334): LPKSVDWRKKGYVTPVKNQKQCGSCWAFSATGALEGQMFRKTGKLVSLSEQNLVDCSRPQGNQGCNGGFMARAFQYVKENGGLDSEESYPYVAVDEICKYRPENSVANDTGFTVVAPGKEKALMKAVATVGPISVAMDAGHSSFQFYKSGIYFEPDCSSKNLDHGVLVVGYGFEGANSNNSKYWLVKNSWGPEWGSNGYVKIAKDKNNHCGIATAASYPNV
The series can be described thus: Protease counter-screening: Cathepsin L2. In kind it is biochemical. On the procedure:
as §1, §2, §3, §4, §5, §7, §8, §9, §10, §11, §12

T2 sequence (P08709 213-466 limits assumed): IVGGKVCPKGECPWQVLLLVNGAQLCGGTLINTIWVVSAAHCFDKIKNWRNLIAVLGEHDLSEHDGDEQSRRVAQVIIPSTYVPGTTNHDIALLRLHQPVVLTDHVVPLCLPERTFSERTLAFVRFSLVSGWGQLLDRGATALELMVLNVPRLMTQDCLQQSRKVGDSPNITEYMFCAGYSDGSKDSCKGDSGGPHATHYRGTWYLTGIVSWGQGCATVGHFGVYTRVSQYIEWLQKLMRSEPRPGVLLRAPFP
T2 sequence (P08709 61-212 limits assumed): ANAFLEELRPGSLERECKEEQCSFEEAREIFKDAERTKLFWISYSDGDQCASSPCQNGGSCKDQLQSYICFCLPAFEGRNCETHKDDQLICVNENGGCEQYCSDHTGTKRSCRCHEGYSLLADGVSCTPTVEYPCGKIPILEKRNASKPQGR
T1 sequence (P00742 235-488 limits assumed): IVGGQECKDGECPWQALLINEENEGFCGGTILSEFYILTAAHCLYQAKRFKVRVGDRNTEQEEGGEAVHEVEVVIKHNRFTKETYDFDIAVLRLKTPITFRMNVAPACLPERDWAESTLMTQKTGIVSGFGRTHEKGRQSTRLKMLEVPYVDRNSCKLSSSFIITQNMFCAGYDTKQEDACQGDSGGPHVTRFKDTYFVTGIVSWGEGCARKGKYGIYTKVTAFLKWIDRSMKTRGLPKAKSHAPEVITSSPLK
T1 sequence (P00742 41-179 limits assumed): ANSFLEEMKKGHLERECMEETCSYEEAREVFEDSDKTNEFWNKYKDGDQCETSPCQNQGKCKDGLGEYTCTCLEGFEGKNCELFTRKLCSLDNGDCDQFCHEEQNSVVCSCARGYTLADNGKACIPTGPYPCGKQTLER

With `CC(C)[C@H](NC(=O)[C@H](C)NC(=O)[C@@H](NC(=O)c1ccccc1)C(C)(C)C)C(=O)C(=O)NCc1ccccc1` [Compound 38, N-{(S)-1-[(S)-1-((S)-1-Benzylaminooxalyl-2-methyl-propylcarbamoyl)-ethylcarbamoyl]-2,2-dimethyl-propyl}-benzamide], the results for the inhibition at 10 µM in series [1] and in series [2] were 7% and 1%, respectively. Further, the concentration in series [3] (male, Sprague-Dawley, plasma, 5 mg/kg po, mean ± SE, n = 3) peaked (Cmax) at 732 ± 3 nM. The bioavailability in series [3] (male, Sprague-Dawley, plasma, po, 5 mg/kg, 5 mg/kg po compared with 1 mg/kg iv, nonfasted Sprague–Dawley rats, mean ± SE, n = 3, read-out: F % (bioavailability)) stood at 33 ± 8%. In addition, the “free conc Cmax” value in series [3] (5 mg/kg po) stood at 29 ± 0 nM. Moreover, the half-inhibitory concentration (IC50) on human plasma thrombin was > 100 µM; in series [4], 3.53 µM.
